Tested on: MAG biosynthesis (DGL)
Assay: THL oral gavage: levels of MAGs in jejunum mucosa, lung and plasma
Type: in vivo, mouse
Method: Adult C57BL/6J male mice were food-deprived for 24 h prior to harvest with ad libitum access to water. To prevent coprophagia, animals were maintained on elevated wire-bottom cages for a 72-hour acclimation period and during the 24-hour food deprivation. One hour prior to harvest, mice received an oral gavage (100 μL of 10 mg/mL) of the DGL inhibitor, THL, in polyethylene glycol (PEG) or PEG alone as control. Jejunum intestinal epithelium and lungs were harvested as described above (see section “Tissue Harvest and Preparation for Enzyme Assays”).
Frozen tissue samples were weighed and homogenized in 1.0 mL of methanol containing the internal standards [^2H5]-2-AG (500 pmol), [^2H4]-AEA (1 pmol), and [^2H4]-OEA (10 pmol). Lipids were extracted using chloroform (2.0 mL) prior to being washed with 1.0 mL 0.2-micron ultra-purified water. Following centrifugation (1,500 × g, 15 min, 4°C), the lower organic phase was collected and dried under N2 steam (99.998% pure). A second chloroform wash (1.0 mL) was then performed followed by another centrifugation (1,500 × g, 15 min, 4°C) and collection of the lower phase. Samples were reconstituted in 2.0 mL of chloroform and purified via open-bed silica gel column chromatography. Columns were washed with a 9:1 chloroform:methanol mixture to elute MAGs and FAEs for collection. Collected eluates were dried under N2 steam (99.998% pure) and resuspended in 0.2 mL of methanol:chloroform (1:1) prior to analysis via UPLC-MS/MS (see section “Quantitation of MAGs and FAEs”).
Data was acquired using equipment described above (see section “UPLC-MS/MS Detection of Analytes”) and using the elution protocol described above (see section “Quantitation of MAG Biosynthetic Enzyme Activity Assay Products”). Cone voltage and collision energy for each analyte are as follows, respectively: AEA = 30 v, 14 v; [^2H4]-AEA = 26 v, 16v; OEA = 28 v, 16 v; [^2H4]-OEA = 48 v, 14 v; DHEA = 30 v, 50 v; 2-AG (20:4) = 30 v, 12 v; [^2H5]-2-AG = 25 v, 44v; 2-DG (22:6) = 34 v, 14 v; 2-PG (16:0) = 18 v, 10 v; 2-OG (18:1) = 42 v, 10 v; 2-LG (18:2) = 30 v, 10 v. MS/MS detection was in positive ion mode and capillary voltage set at 0.1 kV. Extracted ion chromatograms were used to quantify AEA (m/z = 348.3 > 62.0), [^2H4]-AEA (m/z = 352.3 > 66.1), OEA (m/z = 326.4 > 62.1), [^2H4]-OEA (m/z = 330.4 > 66.0), DHEA (m/z = 372.3 > 91.0), 2-AG (m/z = 379.3 > 287.3), [^2H5]-2-AG (m/z = 384.3 > 93.4), 2-DG (m/z = 403.3 > 311.1), 2-PG (m/z = 331.3 > 239.3), 2-OG (m/z = 357.4 > 265.2), and 2-LG (m/z = 355.3 > 263.3). Quantitation occurred using a stable isotope dilution method to detect protonated adducts of the ions [M + H] + in MRM mode. Acyl migration is known to occur in many MAG species following silica-gel purification, therefore the sum of 1-AG and 2-AG, 1-PG and 2-PG, 1-OG and 2-OG, and 1-DG and 2-DG are reported ([Stella et al., 1997]). The established lower limit of quantitation (LLOQ: signal to noise ratio >10) for 2-AG, 2-DG, 2-PG, 2-OG, and 2-LG was 0.5 pmol. The LLOQ for AEA, OEA, and DHEA was 0.008 pmol.

[1] = THL 1 mg oral, 1 h prior to tissue harvest

CCCCCCCCCCC[C@@H](C[C@@H]1OC(=O)[C@H]1CCCCCC)OC(=O)[C@H](CC(C)C)NC=O [THL, tetrahydrolipstatin]
2-LG level in lung (THL 1 mg oral gavage 1 h prior to harvest, vehicle 0.51 ± 0.10): 1.13 ± 0.35 nmol/g
2-DG level in lung (THL 1 mg oral gavage 1 h prior to harvest, vehicle 1.17 ± 0.07): 1.02 ± 0.07 nmol/g
2-OG level in lung (THL 1 mg oral gavage 1 h prior to harvest, vehicle 1.81 ± 0.13): 2.25 ± 0.37 nmol/g
2-OG level in plasma (THL 1 mg oral gavage 1 h prior to harvest, vehicle 2.71 ± 0.68): 1.53 ± 0.22 pmol/mL
2-PG level in lung (THL 1 mg oral gavage 1 h prior to harvest, vehicle 3.15 ± 0.26): 2.51 ± 0.15 nmol/g
2-AG level in lung (THL 1 mg oral gavage 1 h prior to harvest, vehicle 4.47 ± 0.44): 3.73 ± 0.37 nmol/g
2-AG level in plasma (THL 1 mg oral gavage 1 h prior to harvest, vehicle 31.59 ± 3.93): 29.34 ± 2.18 pmol/mL
2-DG level in plasma (THL 1 mg oral gavage 1 h prior to harvest, vehicle 44.25 ± 11.63): 32.82 ± 1.67 pmol/mL
2-PG level in plasma (THL 1 mg oral gavage 1 h prior to harvest, vehicle 46.63 ± 4.97): 51.99 ± 9.87 pmol/mL
2-LG level in plasma (THL 1 mg oral gavage 1 h prior to harvest, vehicle 156.32 ± 27.64): 105.12 ± 11.41 pmol/mL
effect on levels of MAGs in lung vs vehicle [1]: no significant changes
effect on plasma MAGs vs vehicle [1]: No significant changes
effect on levels of all MAGs in jejunum mucosa vs vehicle (THL 1 mg oral, 1 h prior to tissue harvest, 24 h food deprived mice): reduced
2-DG level in jejunum mucosa (mice food deprived 24 h, THL 1 mg oral gavage 1 h prior to harvest, vehicle 7.53 ± 1.40): 0.85 ± 0.13 nmol/g
2-PG level in jejunum mucosa (mice food deprived 24 h, THL 1 mg oral gavage 1 h prior to harvest, vehicle 13.52 ± 2.60): 4.91 ± 0.51 nmol/g
2-AG level in jejunum mucosa (mice food deprived 24 h, THL 1 mg oral gavage 1 h prior to harvest, vehicle 45.81 ± 7.02): 8.04 ± 1.52 nmol/g
2-OG level in jejunum mucosa (mice food deprived 24 h, THL 1 mg oral gavage 1 h prior to harvest, vehicle 100.71 ± 28.93): 5.56 ± 1.10 nmol/g
2-LG level in jejunum mucosa (mice food deprived 24 h, THL 1 mg oral gavage 1 h prior to harvest, vehicle 194.08 ± 40.11): 24.61 ± 7.48 nmol/g

From article PMC8317065, “UPLC-MS/MS Method for Analysis of Endocannabinoid and Related Lipid Metabolism in Mouse Mucosal Tissue” (Frontiers in Physiology, 2021)
